Results on eleven molecules are retold here after US20240238423A9, “TETRAHYDROISOQUINOLINE HETEROBIFUNCTIONAL BCL-XL DEGRADERS” (Treeline Biosciences, Inc., priority 2022, published 2024).

The target of the test is T1, Human BCL-XL protein (N-terminal HiBiT tagged BCL-XL in HT1080 cells) (Homo sapiens, UniProt Q07817).
T1 construct: expressed in transfected cells; host or cells: HT-1080 (ATCC CCL-121), stably transduced with lentivirus pLV-UBC-N-HiBiT-BCL-XL-PGK-puro and selected with puromycin
The experiment in a line: HiBiT based degradation assay. The conditions noted are these: HT1080 cells expressing HiBiT-BCL-XL, 24 h; for Ymin (24 h): BCL-XL degradation normalized with DMSO control; for DC50: BCL-XL degradation, read-out: EC50 (24 h). Format: cell-based. The procedure, abridged:
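HT1080 cells stably transduced by lentivirus with N-terminally HiBiT-tagged human BCL-XL and kept under 1 μg/mL puromycin selection were seeded at three thousand cells per well in 40 μL RPMI 1640 into 384-well plates pre-spotted with compounds across a concentration range. Luminescence was read on a PHERAstar FSX, normalized to DMSO, and fitted with a four-parameter logistic model.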
(In general: The HiBiT peptide binds its large partner to form an active luciferase.)

A value given as a limit tells only on which side of the number the result lay.

T1 sequence (Q07817 whole entry): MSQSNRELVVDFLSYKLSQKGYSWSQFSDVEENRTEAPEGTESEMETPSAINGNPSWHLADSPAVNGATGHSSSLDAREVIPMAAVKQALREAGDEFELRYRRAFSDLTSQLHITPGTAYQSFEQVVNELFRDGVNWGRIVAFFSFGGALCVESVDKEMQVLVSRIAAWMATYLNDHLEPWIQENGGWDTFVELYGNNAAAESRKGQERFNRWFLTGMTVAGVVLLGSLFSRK

For `Cn1nc(C2CCC(=O)NC2=O)c2ccc(NC(=O)CN3CCC(CCCOc4cccc(-c5ccc(N6CCc7cccc(C(=O)Nc8nc9ccccc9s8)c7C6)nc5C(=O)O)c4C(F)(F)F)CC3)cc21` (stereo not shown) [Compound 313, 6-[8-(1,3-benzothiazol-2-ylcarbamoyl)-3,4-dihydro-1H-isoquinolin-2-yl]-3-[3-[3-[1-[2-[[3-(2,6-dioxo-3-piperidyl)-1-methyl-indazol-6-yl]amino]-2-oxo-ethyl]-4-piperidyl]propoxy]-2-(trifluoromethyl)phenyl]pyridine-2-carboxylic acid], the “Ymin (24 h)” value is on record as “A (Ymin < 50%)” and the DC50 is less than 100 nM.
For `Cn1nc(C2CCC(=O)NC2=O)c2ccc(NC(=O)CN3CCC(CCCOc4cccc(-c5ccc(N6CCc7cccc(C(=O)Nc8nc9ccccc9s8)c7C6)nc5C(=O)O)c4)CC3)cc21` (stereo not shown) [Compound 314, 6-(8-(benzo[d]thiazol-2-ylcarbamoyl)-3,4-dihydroisoquinolin-2(1H)-yl)-3-(3-(3-(1-(2-((3-(2,6-dioxopiperidin-3-yl)-1-methyl-1H-indazol-6-yl)amino)-2-oxoethyl)piperidin-4-yl)propoxy)phenyl)picolinic acid] the same measures were “B (50% ≤ Ymin < 70%)” and less than 100 nM.
In the same order, the values of `Cc1c(O[C@H]2CC[C@H](CCCN3CCN(c4ccc5c(N6CCC(=O)NC6=O)nn(C)c5c4)CC3)CC2)cccc1-c1ccc(N2CCc3cccc(C(=O)Nc4nc5ccccc5s4)c3C2)nc1C(=O)O` [Compound 316a, 6-(8-(benzo[d]thiazol-2-ylcarbamoyl)-3,4-dihydroisoquinolin-2(1H)-yl)-3-(3-(((1s,4r)-4-(3-(4-(3-(2,4-dioxotetrahydropyrimidin-1(2H)-yl)-1-methyl-1H-indazol-6-yl)piperazin-1-yl)propyl)cyclohexyl)oxy)-2-methylphenyl)picolinic acid] are “A (Ymin < 50%)” and less than 100 nM.
As for `Cc1c(OCCCC2CCN(CC(=O)Nc3ccc4c(N5CCC(=O)NC5=O)nn(C)c4c3)CC2)cccc1-c1ccc(N2CCc3cccc(C(=O)Nc4nc5ccccc5s4)c3C2)nc1C(=O)O` [Compound 317, 6-(8-(benzo[d]thiazol-2-ylcarbamoyl)-3,4-dihydroisoquinolin-2(1H)-yl)-3-(3-(3-(1-(2-((3-(2,4-dioxotetrahydropyrimidin-1(2H)-yl)-1-methyl-1H-indazol-6-yl)amino)-2-oxoethyl)piperidin-4-yl)propoxy)-2-methylphenyl)picolinic acid], the “Ymin (24 h)” value is given as “B (50% ≤ Ymin < 70%)” and the DC50 is less than 100 nM.
For `Cc1c(O[C@H]2CC[C@H](CCCN3CCN(c4ccc5c(C6CCC(=O)NC6=O)nn(C)c5c4)C(C)(C)C3)CC2)cccc1-c1ccc(N2CCc3cccc(C(=O)Nc4nc5ccccc5s4)c3C2)nc1C(=O)O` (stereo partly shown) [Compound 318a, 6-(8-(benzo[d]thiazol-2-ylcarbamoyl)-3,4-dihydroisoquinolin-2(1H)-yl)-3-(3-(((1s,4r)-4-(3-(4-(3-(2,6-dioxopiperidin-3-yl)-1-methyl-1H-indazol-6-yl)-3,3-dimethylpiperazin-1-yl)propyl)cyclohexyl)oxy)-2-methylphenyl)picolinic acid] the same measures were “A (Ymin < 50%)” and less than 100 nM.
For `Cn1nc(C2CCC(=O)NC2=O)c2ccc(N3CCN(CCCC[C@H]4CC[C@H](Oc5cccc(-c6ccc(N7CCc8cccc(C(=O)Nc9nc%10ccccc%10s9)c8C7)nc6C(=O)O)c5C(F)(F)F)CC4)CC3)cc21` (stereo partly shown) [Compound 319a, 6-(8-(benzo[d]thiazol-2-ylcarbamoyl)-3,4-dihydroisoquinolin-2(1H)-yl)-3-(3-(((1s,4r)-4-(4-(4-(3-(2,6-dioxopiperidin-3-yl)-1-methyl-1H-indazol-6-yl)piperazin-1-yl)butyl)cyclohexyl)oxy)-2-(trifluoromethyl)phenyl)picolinic acid] the same measures were “A (Ymin < 50%)” and less than 100 nM.
For `Cc1c(O[C@H]2CC[C@H](CCCCN3CCN(c4ccc5c(C6CCC(=O)NC6=O)nn(C)c5c4)C(C)(C)C3)CC2)cccc1-c1ccc(N2CCc3cccc(C(=O)Nc4nc5ccccc5s4)c3C2)nc1C(=O)O` (stereo partly shown) [Compound 322a, 6-(8-(benzo[d]thiazol-2-ylcarbamoyl)-3,4-dihydroisoquinolin-2(1H)-yl)-3-(3-(((1s,4r)-4-(4-(4-(3-(2,6-dioxopiperidin-3-yl)-1-methyl-1H-indazol-6-yl)-3,3-dimethylpiperazin-1-yl)butyl)cyclohexyl)oxy)-2-methylphenyl)picolinic acid], the “Ymin (24 h)” value was “A (Ymin < 50%)” and the DC50 was less than 100 nM.
For the molecule `Cc1c(O[C@H]2CC[C@H](CCCCN3CCN(c4ccc5c(C6CCC(=O)NC6=O)nn(C)c5c4)CC3(C)C)CC2)cccc1-c1ccc(N2CCc3cccc(C(=O)Nc4nc5ccccc5s4)c3C2)nc1C(=O)O` (stereo partly shown) [Compound 323a, 6-(8-(benzo[d]thiazol-2-ylcarbamoyl)-3,4-dihydroisoquinolin-2(1H)-yl)-3-(3-(((1s,4r)-4-(4-(4-(3-(2,6-dioxopiperidin-3-yl)-1-methyl-1H-indazol-6-yl)-2,2-dimethylpiperazin-1-yl)butyl)cyclohexyl)oxy)-2-methylphenyl)picolinic acid], the “Ymin (24 h)” value was “A (Ymin < 50%)” and the DC50 was less than 100 nM.
In the same order, the values of `Cc1c(O[C@H]2CC[C@H](CCCCN3CCN(c4ccc5c(C6CCC(=O)NC6=O)nn(C)c5c4C)CC3)CC2)cccc1-c1ccc(N2CCc3cccc(C(=O)Nc4nc5ccccc5s4)c3C2)nc1C(=O)O` (stereo partly shown) [Compound 324a, 6-(8-(benzo[d]thiazol-2-ylcarbamoyl)-3,4-dihydroisoquinolin-2(1H)-yl)-3-(3-(((1s,4r)-4-(4-(4-(3-(2,6-dioxopiperidin-3-yl)-1,7-dimethyl-1H-indazol-6-yl)piperazin-1-yl)butyl)cyclohexyl)oxy)-2-methylphenyl)picolinic acid] are “A (Ymin < 50%)” and less than 100 nM.
For the molecule `Cc1cc2c(C3CCC(=O)NC3=O)nn(C)c2cc1N1CCN(CCCC[C@H]2CC[C@H](Oc3cccc(-c4ccc(N5CCc6cccc(C(=O)Nc7nc8ccccc8s7)c6C5)nc4C(=O)O)c3C)CC2)CC1` (stereo partly shown) [Compound 325a, 6-(8-(benzo[d]thiazol-2-ylcarbamoyl)-3,4-dihydroisoquinolin-2(1H)-yl)-3-(3-(((1s,4r)-4-(4-(4-(3-(2,6-dioxopiperidin-3-yl)-1,5-dimethyl-1H-indazol-6-yl)piperazin-1-yl)butyl)cyclohexyl)oxy)-2-methylphenyl)picolinic acid], the “Ymin (24 h)” value was “A (Ymin < 50%)” and the DC50 was less than 100 nM.
Turning to `Cc1c(O[C@H]2CC[C@H](CCCCN3CCC(Oc4ccc5c(C6CCC(=O)NC6=O)nn(C)c5c4)CC3)CC2)cccc1-c1ccc(N2CCc3cccc(C(=O)Nc4nc5ccccc5s4)c3C2)nc1C(=O)O` (stereo partly shown) [Compound 326a, 6-(8-(benzo[d]thiazol-2-ylcarbamoyl)-3,4-dihydroisoquinolin-2(1H)-yl)-3-(3-(((1s,4r)-4-(4-(4-((3-(2,6-dioxopiperidin-3-yl)-1-methyl-1H-indazol-6-yl)oxy)piperidin-1-yl)butyl)cyclohexyl)oxy)-2-methylphenyl)picolinic acid], the “Ymin (24 h)” value is on record as “A (Ymin < 50%)” and the DC50 is less than 100 nM.
